Measurements taken from patent publication US20130158127A1, “TEA TREE OIL DERIVATIVES” (priority 2011, published 2013).

Test system: Vero cells
Test: Vero cell cytotoxicy assays (light microscopy of monolayers)

**Q.** What does the source list for polysorbate 60 [PS-60]?
**A.** sub-toxic dose (a small proportion of cells appeared to remain healthy): 0.125%; non-toxic dose (no changes compared to the untreated control): 0.06%
